Assay results from ChEMBL document CHEMBL1127161, “Synthesis of a peptidyl 2,2-difluoro-4-phenylbutyl ketone and its evaluation as an inhibitor of interleukin-1 converting enzyme” (Bioorg Med Chem Lett, 1993).

Target: T1, Caspase-1 (Homo sapiens, UniProt P29466)
T1 sequence (P29466 whole entry): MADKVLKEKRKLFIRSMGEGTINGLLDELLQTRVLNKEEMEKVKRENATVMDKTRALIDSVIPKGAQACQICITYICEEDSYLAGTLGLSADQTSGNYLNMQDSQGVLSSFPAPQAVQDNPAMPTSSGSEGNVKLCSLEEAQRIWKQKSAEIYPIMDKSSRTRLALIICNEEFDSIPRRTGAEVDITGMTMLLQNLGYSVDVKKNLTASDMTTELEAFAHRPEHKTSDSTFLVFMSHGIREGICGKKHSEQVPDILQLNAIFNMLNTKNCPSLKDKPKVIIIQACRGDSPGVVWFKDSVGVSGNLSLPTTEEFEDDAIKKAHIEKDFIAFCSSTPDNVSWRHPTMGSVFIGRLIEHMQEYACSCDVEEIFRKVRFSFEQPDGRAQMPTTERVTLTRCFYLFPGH
Assay: The compound was tested for its inhibitory activity against IL-1 beta converting enzyme

Row | Compound | Ki [µM]
1 | CC(C)[C@H](NC(=O)CCCCc1ccccc1)C(=O)N[C@@H](C)C(=O)NC(CC(=O)O)C(=O)C(F)(F)CCCc1ccccc1 (some centres not stated) | 42
2 | CC(C)[C@H](NC(=O)CCc1ccccc1)C(=O)N[C@@H](C)C(=O)NC(CC(=O)O)C(=O)C(F)(F)CCCc1ccccc1 (some centres not stated) | 6
